From US20250009777A1 (priority 2021, published 2025) come the findings set out here.

Read-outs that look alike come from different tables or passages of the source. Bounds are passed on as bounds.

Broadly, the EC50 is the concentration that produces a half-maximal response. Read a high EC50 as a need for much substance.

In one data set the test system is DENV4. The data set is described as follows: microbe, parasite or virus in culture. Particulars: Dengue virus, DENV4, BHK-21, 120 h. Type of data set: cell-based.
Data set [1] in a line: in vitro. The following applies: human.
The test system of data set [2] is AG129 mouse-adapted DENV2. Type of data set: in vivo, mice. Particulars: for Survival rate: death = bodyweight below 70%; for day post virus infection until which all of the mice survived: death = bodyweight below 80% of initial, FIG. 2A.
In a further data set the test system is DENV3. The data set is described as follows: microbe, parasite or virus in culture. Type of data set: cell-based. Particulars: Dengue virus, DENV3, BHK-21, 120 h.
Data set [3] concerns coronaviruses, flaviviruses and togaviruses. The format is cell-based.
The next data set concerns CHIKV. The data set is described as follows: microbe, parasite or virus in culture. Type of data set: cell-based. The following applies: Chikungunya virus, BHK-21.
Another data set concerns YFV. The experiment in a line: microbe, parasite or virus in culture. The format is cell-based. The following applies: Yellow fever virus, BHK-21, 72 h.
Data set [4] in a line: in vitro. Particulars: Syrian hamster.
Another data set has as its system HCoV-OC43. The experiment in a line: microbe, parasite or virus in culture. The format is cell-based, Human Coronavirus. The following applies: Betacoronavirus 1, OC43, MRC5.
For data set [5], the system named is DENV2. The data set is described as follows: Library screening for inhibition of cell death of flavivirus-infected cells. The following applies: compound library screening. Type of data set: cell-based, dengue virus. The protocol:
Using the compounds of a compound library based on nucleic acid compounds held by the Center for Research and Education on Drug Discovery, Hokkaido University, National University Corporation as test samples, screening was conducted for compounds having an effect in inhibiting cell death of cells infected with a flavivirus. DENV2 was used as the flavivirus.

The test system of a further data set is DENV1. The experiment in a line: microbe, parasite or virus in culture. The format is cell-based. Particulars: Dengue virus, DENV1, BHK-21, 120 h.
The subject of data set [6] is DENV2. The experiment in a line: microbe, parasite or virus in culture. The following applies: Dengue virus, DENV2, BHK-21, 96 h. The format is cell-based.
The next data set concerns WNV. The data set is described as follows: microbe, parasite or virus in culture. The following applies: West Nile virus, BHK-21, 72 h. The format is cell-based.
Another data set concerns JEV. The experiment in a line: microbe, parasite or virus in culture. Type of data set: cell-based. The following applies: Japanese encephalitis virus, BHK-21, 72 h.
The next data set concerns HCoV-229E. The data set is described as follows: microbe, parasite or virus in culture. The following applies: Human coronavirus 229E, MRC5. The format is cell-based.
The subject of another data set is ZIKV. The data set is described as follows: microbe, parasite or virus in culture. Type of data set: cell-based. Particulars: Zika virus, BHK-21, 72 h.
The nature of data set [7]: Cytotoxicity (CC50) of structural analogs, Table 4. The format is cell-based. Particulars: cell line not stated. Here is the method: Measurement of the antiviral activity was conducted in the same manner as Example 1. […] Among these compounds, compounds (A2), (A4) and (A6) had satisfactory differences in the ECso and CCso concentration levels, indicating particular promise as antiviral agents.

A further data set has as its system SARS-CoV-2 Wuhan strain. The experiment in a line: Antiviral activity against SARS-CoV-2 Wuhan strain, same manner as Example 1. Type of data set: cell-based. Particulars: for SI: CC50 relative to EC50.
[8] abbreviates: Severe acute respiratory syndrome coronavirus 2.

Consider `O=c1ccn([C@@H]2O[C@H](CO)[C@@H](O)[C@H]2O)c(=S)[nH]1` [2-thiouridine], for which the EC50 with DENV4 amounted to 1.7 µM; in the data set on DENV3, 2 µM; in the data set on CHIKV it was 8.2 µM; in the data set on YFV, 2.9 µM; with HCoV-OC43, 13 µM; with DENV1 it was 2.4 µM. Also, the EC50 in the data set on DENV2 [6] stood at 1.5 µM; in the data set on WNV it was 5.3 µM; with JEV, 4.8 µM; in the data set on HCoV-229E, 0.77 µM; in the data set with ZIKV, 5 µM. The CC50 in the data set “in vitro [1]” and in the data set “in vitro [4]” was above 50 µM each time. In [2] (50 mg/kg (n=8) and 150 mg/kg (n=9) groups compared with vehicle, in words), the “survival rate for the virus-infected mice” value is “increased in a dosage-dependent manner”. For the same molecule, the Survival rate in data set [2] (50 mg/kg oral twice per day, n = 8, day 0 post infection) is on record as 100%; in data set [2] (50 mg/kg oral twice per day, n = 8, day 1 post infection) it was 100%; in data set [2] (50 mg/kg oral twice per day, n = 8, day 2 post infection), 100%; in [2] (50 mg/kg oral twice per day, n = 8, day 3 post infection), 100%; in data set [2] (50 mg/kg oral twice per day, n = 8, day 4 post infection), 100%; in [2] (50 mg/kg oral twice per day, n = 8, day 5 post infection), 100%. Further, the Survival rate in data set [2] (50 mg/kg oral twice per day, n = 8, day 6 post infection) was 100%; in data set [2] (50 mg/kg oral twice per day, n = 8, day 7 post infection), 100%; in data set [2] (50 mg/kg oral twice per day, n = 8, day 8 post infection) it was 100%; in data set [2] (50 mg/kg oral twice per day, n = 8, day 9 post infection), 100%; in [2] (50 mg/kg oral twice per day, n = 8, day 10 post infection), 100%; in [2] (50 mg/kg oral twice per day, n = 8, day 11 post infection), 75%. Also, the Survival rate in data set [2] (50 mg/kg oral twice per day, n = 8, day 12 post infection) stood at 50%; in data set [2] (50 mg/kg oral twice per day, n = 8, day 13 post infection), 37.5%; in data set [2] (50 mg/kg oral twice per day, n = 8, day 14 post infection), 37.5%; in data set [2] (50 mg/kg oral twice per day, n = 8, day 15 post infection) it was 0%; in data set [2] (150 mg/kg oral twice per day, n = 9, day 0 post infection), 100%; in [2] (150 mg/kg oral twice per day, n = 9, day 1 post infection), 100%. The Survival rate in [2] (150 mg/kg oral twice per day, n = 9, day 2 post infection) was found to be 100%; in data set [2] (150 mg/kg oral twice per day, n = 9, day 3 post infection) it was 100%; in [2] (150 mg/kg oral twice per day, n = 9, day 4 post infection), 100%; in data set [2] (150 mg/kg oral twice per day, n = 9, day 5 post infection), 100%; in [2] (150 mg/kg oral twice per day, n = 9, day 6 post infection) it was 100%; in [2] (150 mg/kg oral twice per day, n = 9, day 7 post infection), 100%. Also, the Survival rate came out at 100% in data set [2] (150 mg/kg oral twice per day, n = 9, day 8 post infection); 100% in [2] (150 mg/kg oral twice per day, n = 9, day 9 post infection); 100% in data set [2] (150 mg/kg oral twice per day, n = 9, day 10 post infection); 88.89% in data set [2] (150 mg/kg oral twice per day, n = 9, day 11 post infection); 88.89% in [2] (150 mg/kg oral twice per day, n = 9, day 12 post infection); 66.67% in data set [2] (150 mg/kg oral twice per day, n = 9, day 13 post infection). Moreover, the Survival rate is on record as 66.67% in data set [2] (150 mg/kg oral twice per day, n = 9, day 14 post infection); 66.67% in data set [2] (150 mg/kg oral twice per day, n = 9, day 15 post infection); 66.67% in data set [2] (150 mg/kg oral twice per day, n = 9, day 16 post infection). Besides, the “day post virus infection until which all of the mice survived” value in data set [2] (50 mg/kg orally twice per day for 5 days, n=3) was 12 days; in data set [2] (150 mg/kg orally twice per day for 5 days, n=4) it was 15 days. Moreover, in data set [3], the “relative viral RNA level” value is “decreased”. In addition, the “antiviral activity (inhibiting cell death of infected cells)” value with DENV2 [5] was “exhibited antiviral activity”.
In [7], “2′,3′-O-isopropylidene-5′-O-isobutyryl-2-thiouridine [Compound A6]” registered a CC50 of 19.4 µM. For the same molecule, in the data set with SARS-CoV-2 Wuhan strain, a half-maximal response (EC50) required 3.93 µM and the SI is 4.9.
On the same counts, the results for “2′,3′-O-isopropylidene-5′-O-propynyl-2-thiouridine [Compound A5]” are 11.9 µM, 7.56 µM and 1.6.
As to `O=c1ccn(C2O[C@H](CO)[C@@H](O)[C@H]2O)c(=NO)[nH]1` (stereo partly drawn) [Compound A4], in [7], the CC50 is 6.04 µM. The molecule further returned an SI with SARS-CoV-2 Wuhan strain of 7.5. The molecule also returned an EC50 with SARS-CoV-2 Wuhan strain (setting [8]) of 0.81 µM.
For the molecule `O=c1ccn([C@@H]2O[C@H](CO)[C@@H](O)[C@H]2O)c(=[Se])[nH]1` [Compound A2, 2-selenouridine], the CC50 in data set [7] is above 20 µM. In the data set with SARS-CoV-2 Wuhan strain, this molecule displayed an SI above 2.7. The molecule also showed an EC50 in the data set on SARS-CoV-2 Wuhan strain (setting [8]) of 7.37 µM.
On the same counts, the results for `CSc1nc(=O)ccn1C1O[C@H](CO)[C@@H](O)[C@H]1O` (stereo partly drawn) [Compound A3] are 5.48 µM, 1.2 and 4.67 µM.
